Test results as given in ChEMBL document CHEMBL6083254, “Optimization of B-Ring-Functionalized Antimalarial Tambjamines and Prodiginines” (J Med Chem, 2024).
“And” between values parts separate entries of the source, which are not always exact repeats. Equal values may be shown once. The source made the active and inactive calls. The rule behind the calls is not given here.

Experiments:
[1] = system: Plasmodium falciparum; assay: microbe, parasite or virus in culture; settings: Dd2, 72 h
[2] = system: Plasmodium falciparum; assay: microbe, parasite or virus in culture; settings: D6, 72 h
[3] = system: HepG2; assay: (§1) Cytotoxicity against human HepG2 cells assessed as cell viability incubated for 72 hrs by MTT assay; format: toxicity, cell-based; settings: hepg2
[4] = system: Plasmodium yoelii; assay: Antiplasmodial activity against asexual erythrocytic stage of Plasmodium yoelii infected in female CFI mouse model assessed as reduction in parasitemia at 1 mg/kg, po administered once daily for 4 days and measured on day 5 by Giemsa staining based microscopic analysis relative to control; format: functional; parameters: scale not given: the % may be the effect or the level left
[5] = system: Plasmodium yoelii; assay: Antiplasmodial activity against asexual erythrocytic stage of Plasmodium yoelii infected in female CFI mouse model assessed as reduction in parasitemia at 10 mg/kg, po administered once daily for 4 days and measured on day 5 by Giemsa staining based microscopic analysis relative to control; format: functional; parameters: scale not given: the % may be the effect or the level left
[6] = system: Plasmodium yoelii; assay: Antiplasmodial activity against asexual erythrocytic stage of Plasmodium yoelii infected in female CFI mouse model at 25 mg/kg, po administered once daily for 4 days and measured on day 5 by Giemsa staining based microscopic analysis; format: functional, organism-based; settings: time 5.0 day
[7] = system: Plasmodium falciparum; assay: microbe, parasite or virus in culture; settings: Tm90-C2B, 72 h
[8] = in vitro; settings: human
Description: Selectivity index, ratio of IC50 for cytotoxicity against human HepG2 cells assessed as cell viability to IC50 for antiplasmodial activity against asexual erythrocytic stage of Plasmodium falciparum D6 assessed as inhibition of parasitic growth incubated

[9] = system: Plasmodium yoelii; assay: Antiplasmodial activity against asexual erythrocytic stage of Plasmodium yoelii infected in po dosed female CFI mouse model assessed as reduction in parasitemia administered once daily for 4 days and measured on day 5 by Giemsa staining based microscopic analysis; format: functional; settings: 120 h, time 5 day
[10] = system: Plasmodium yoelii; assay: Antiplasmodial activity against asexual erythrocytic stage of Plasmodium yoelii infected in female CFI mouse model assessed as reduction in parasitemia at 25 mg/kg, po administered once daily for 4 days and measured on day 5 by Giemsa staining based microscopic analysis relative to control; format: functional; parameters: scale not given: the % may be the effect or the level left; settings: time 5 day
[11] = Metabolic stability in human liver microsomes assessed as half life measured upto 60 mins LC-MS analysis
[12] = system: Plasmodium yoelii; assay: Antiplasmodial activity against asexual erythrocytic stage of Plasmodium yoelii infected in female CFI mouse model at 10 mg/kg, po administered once daily for 4 days and measured on day 5 by Giemsa staining based microscopic analysis; format: functional, organism-based; settings: time 5.0 day
[13] = system: Plasmodium yoelii; assay: Antiplasmodial activity against asexual erythrocytic stage of Plasmodium yoelii infected in female CFI mouse model assessed as reduction in parasitemia at 3 mg/kg, po administered once daily for 4 days and measured on day 5 by Giemsa staining based microscopic analysis relative to control; format: functional; parameters: scale not given: the % may be the effect or the level left
[14] = Aqueous solubility of compound in PBS buffer at pH 7.4 incubated for 90 mins by UV-vis spectroscopic analysis; settings: pH 7.4, 1.5 h
[15] = Metabolic stability in mouse liver microsomes assessed as intrinsic clearance measured upto 60 mins LC-MS analysis
[16] = Metabolic stability in mouse liver microsomes assessed as half life measured upto 60 mins LC-MS analysis
[17] = Metabolic stability in human liver microsomes assessed as intrinsic clearance measured upto 60 mins LC-MS analysis
[18] = as §1; format: toxicity, cell-based; settings: human, HepG2 cells

Structure (SMILES)	IC50 [1] [nM]	IC50 [2] [nM]	IC50 [3] [nM]	Activity [6]	IC50 [7] [nM]	selectivity ratio [8]	Activity [10] [%]	half-life at 1 h [11] [min]	solubility [14] [µM]	microsomal CLint at 1 h [15] [µL/min/mg]	half-life at 1 h [16] [min]	microsomal CLint at 1 h [17] [µL/min/mg]	Activity ([13]; time 5.0 day)	Activity ([4]; time 5.0 day)	Activity ([5]; time 5.0 day)	further results
CCCCCc1cc(/C=C2\N=C(c3ccc[nH]3)C=C2Oc2ccc(Cl)cc2)[nH]c1C.Cl	7.03	7.89	9570	Active	10	1210	–	–	–	–	–	–	–	–	–	Activity ([4]; time 5 day): 5.01%; Activity ([5]; time 5 day): 100%; ED50 ([9]; Plasmodium yoelii, po, read-out: ED50): 1.15 mg/kg/day; ED50 [9]: 1.25 mg/kg/day
CCCCCc1cc(/C=C2\N=C(c3ccc[nH]3)C=C2OCCC)[nH]c1C.Cl	0.501	0.307	3560	–	4.58	11600	100	43.6	18.5	40.8	34	31.8	–	–	–	Activity [12]: inactive; Activity ([13]; time 5 day): 89.9%; Activity ([4]; time 5 day): 23.9%; Activity ([5]; time 5 day): 100%; ED50 [9]: 1.46 mg/kg/day and 3 mg/kg/day
CCCCCCCCCCCC1=N/C(=C\c2[nH]c(-c3ccc[nH]3)cc2OC)C=C1 [UNDECYLPRODIGININE]	7.54	7.22	–	Active	8.21	237	100	–	–	–	–	–	inactive	inactive	inactive	IC50 at 72 h [18]: 1710 nM
CCCCCc1cc(/C=C2\N=C(c3ccc[nH]3)C=C2OCc2ccc(OC(F)(F)F)cc2)[nH]c1C.Cl	7.97	7.24	6520	inactive	12.5	900	100	–	–	–	–	–	inactive	inactive	inactive	–
CCCCCC1=C/C(=C\c2[nH]c(-c3ccc[nH]3)cc2OC)N=C1C	7.32	8.01	–	–	8.8	–	–	> 60	–	61.2	23	13.1	–	–	–	IC50 at 72 h [18]: 1070 nM
CCCCCCCCCCCc1ccc(/C=C2\N=C(c3ccc[nH]3)C=C2OCC)[nH]1.Cl	3.45	4.41	21000	inactive	4.02	4750	100	> 60	< 3.125	33.1	41.9	19.1	inactive	inactive	inactive	–
CCCOC1=CC(c2ccc[nH]2)=N/C1=C\NC12CC3CC(CC(C3)C1)C2.Cl	1.45	1.17	2510	–	1.61	2140	81.8	32	52.2	31.8	43.5	42.8	–	–	–	–
C1=C(OCc2ccccc2)/C(=C/NC23CC4CC(CC(C4)C2)C3)N=C1c1ccc[nH]1.Cl	7.49	6.45	1100	–	5.25	171	63	19.3	5.91	17.8	> 60	71.7	–	–	–	–
CCCCCCCCCCCc1ccc(/C=C2\N=C(c3ccc[nH]3)C=C2OCc2ccccc2)[nH]1.Cl	26.4	–	53600	–	22.4	2020	62.3	> 60	< 3.125	4.03	> 60	7.29	inactive	inactive	inactive	–
